Structures are written as SMILES. pEC50, pIC50: −log10 of the molar value. The source made the active and inactive calls. No cut-off for these calls is given here. Bounds are passed on as bounds.

In data set [1] the target is T1, Thyrotropin-releasing hormone receptor 2 (Mus musculus, UniProt Q9ERT1).
T1 sequence (Q9ERT1 whole entry): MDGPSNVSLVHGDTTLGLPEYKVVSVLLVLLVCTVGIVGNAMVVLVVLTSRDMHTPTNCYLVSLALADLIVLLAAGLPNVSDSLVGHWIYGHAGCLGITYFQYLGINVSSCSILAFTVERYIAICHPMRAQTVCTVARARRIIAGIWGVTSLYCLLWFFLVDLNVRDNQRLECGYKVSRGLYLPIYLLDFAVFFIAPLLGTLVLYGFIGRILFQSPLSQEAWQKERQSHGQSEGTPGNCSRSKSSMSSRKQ
Nature of the data set: Displacement of [3H]-1-MeHis-TRH from mouse TRH-R2 expressed in HEK293 cells incubated up to 4 hrs by scintillation counting method. Type of data set: cell-based. (In a radioligand displacement assay an active substance lowers the binding of a labelled ligand.)

In data set [2] the target is T2, Thyrotropin-releasing hormone-degrading ectoenzyme (Mus musculus, UniProt Q8K093).
T2 sequence (Q8K093 whole entry): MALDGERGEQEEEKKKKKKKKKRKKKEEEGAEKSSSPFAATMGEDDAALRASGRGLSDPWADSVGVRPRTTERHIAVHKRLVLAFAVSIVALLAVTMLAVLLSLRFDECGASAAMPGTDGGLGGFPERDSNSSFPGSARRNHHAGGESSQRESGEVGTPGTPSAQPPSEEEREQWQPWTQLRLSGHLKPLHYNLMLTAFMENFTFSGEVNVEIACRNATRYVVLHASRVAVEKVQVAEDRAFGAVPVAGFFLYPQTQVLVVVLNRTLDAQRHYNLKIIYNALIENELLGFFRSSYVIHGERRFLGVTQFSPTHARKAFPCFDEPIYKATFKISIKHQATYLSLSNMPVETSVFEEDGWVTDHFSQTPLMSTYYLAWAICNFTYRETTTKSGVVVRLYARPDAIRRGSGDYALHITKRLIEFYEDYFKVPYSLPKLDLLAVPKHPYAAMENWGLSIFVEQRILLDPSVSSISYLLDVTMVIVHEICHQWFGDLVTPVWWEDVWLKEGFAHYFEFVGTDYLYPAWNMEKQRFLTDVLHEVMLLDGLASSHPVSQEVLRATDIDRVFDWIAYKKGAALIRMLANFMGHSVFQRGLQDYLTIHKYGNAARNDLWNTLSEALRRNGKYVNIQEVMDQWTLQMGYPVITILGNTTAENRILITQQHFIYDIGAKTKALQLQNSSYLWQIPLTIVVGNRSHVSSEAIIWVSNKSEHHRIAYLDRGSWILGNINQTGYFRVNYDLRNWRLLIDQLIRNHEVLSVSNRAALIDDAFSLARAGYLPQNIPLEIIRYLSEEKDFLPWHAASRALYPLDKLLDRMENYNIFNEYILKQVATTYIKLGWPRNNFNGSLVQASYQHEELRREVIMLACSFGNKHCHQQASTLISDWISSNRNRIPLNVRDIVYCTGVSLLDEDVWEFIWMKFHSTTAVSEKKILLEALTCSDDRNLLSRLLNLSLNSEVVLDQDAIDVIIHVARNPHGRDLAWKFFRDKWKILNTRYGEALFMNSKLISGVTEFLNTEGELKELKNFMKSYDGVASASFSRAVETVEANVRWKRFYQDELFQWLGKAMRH
Nature of the data set: Stability assessed as mouse recombinant TRH-degrading ectoenzyme-mediated compound degradation up to 18 hrs by HPLC method. In kind it is ADME.

In data set [3] the test system is Rattus norvegicus. As to the kind of experiment: Reduction in volume of infarction in Sprague-Dawley rat model of MCA occlusion-induced focal cerebral ischemia assessed as infarcts volume at 10 umol/kg, iv administered immediately after reperfusion and measured 22 hrs after reperfusion (reference value: 237.69 +/- 4.08 mm3). Type of data set: functional.
For data set [4], the system named is Rattus norvegicus. Nature of the data set: Effect on mean latency time during retention trial in Sprague-Dawley rat model of MCA occlusion-induced memory impairment at 10 umol/kg, iv by passive avoidance test. Type of data set: functional, organism-based.
Data set [5] relates to Rattus norvegicus. Nature of the data set: Reduction in neurological score in Sprague-Dawley rat model of MCA occlusion-induced focal cerebral ischemia at 10 umol/kg, iv administered immediately after reperfusion and measured 22 hrs after reperfusion up to 7 days. Type of data set: functional, organism-based.
Data set [6] has as its system Rattus norvegicus. As to the kind of experiment: Neuroprotective activity in Sprague-Dawley rat model of MCA occlusion-induced memory impairment assessed as minimum latency time during acquisition trial at 10 umol/kg, iv by passive avoidance test (reference value: 49 secs). In kind it is functional.
The test system of data set [7] is Rattus norvegicus. As to the kind of experiment: Inhibition of lipid peroxidation in brain homogenates of Sprague-Dawley rat model of 2 hrs MCA occlusion-induced focal cerebral ischemia assessed as reduction in MDA levels at 10 umol/kg, iv administered immediately after reperfusion and measured 22 hrs after reperfusion by TBARS assay. Type of data set: functional, organism-based.

Data set [8] addresses T3, Thyrotropin-releasing hormone receptor (Mus musculus, UniProt P21761).
T3 sequence (P21761 whole entry): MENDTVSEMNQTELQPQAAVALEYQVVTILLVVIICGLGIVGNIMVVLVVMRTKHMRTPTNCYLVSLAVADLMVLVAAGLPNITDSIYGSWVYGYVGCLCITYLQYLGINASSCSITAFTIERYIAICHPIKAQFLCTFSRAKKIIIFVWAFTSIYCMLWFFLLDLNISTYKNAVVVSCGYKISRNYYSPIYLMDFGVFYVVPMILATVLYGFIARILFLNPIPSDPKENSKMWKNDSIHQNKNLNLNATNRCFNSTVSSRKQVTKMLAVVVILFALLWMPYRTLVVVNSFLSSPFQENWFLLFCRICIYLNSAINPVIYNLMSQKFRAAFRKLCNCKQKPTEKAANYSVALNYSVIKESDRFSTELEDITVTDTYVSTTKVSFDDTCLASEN
As to the kind of experiment: Displacement of [3H]-1-MeHis-TRH from mouse TRH-R1 expressed in HEK293 cells incubated up to 4 hrs by scintillation counting method. In kind it is cell-based.

For data set [9], the system named is Rattus norvegicus. Nature of the data set: Increase in neuronal survival in Sprague-Dawley rat model of MCA occlusion-induced focal cerebral ischemia assessed as increase in neuronal density at hippocampal CA1 regions at 10 umol/kg, iv by Cresyl violet staining based microscopy. Type of data set: functional, organism-based.
Data set [10] has as its system Rattus norvegicus. Nature of the data set: Reduction in cognitive impairment in Sprague-Dawley rat assessed as increase in number of entries to platform zone during retention trial at 10 umol/kg, iv measured on day 6 by Morris water maze test (reference value: 0.5). In kind it is functional.
The subject of data set [11] is Mus musculus. Nature of the data set: Reduction in pentobarbital-induced sleeping time in Swiss mouse at 10 umol/kg, iv. Type of data set: functional.
In data set [12] the target is T3, Thyrotropin-releasing hormone receptor. Nature of the data set: Agonist activity at mouse TRH-R1 expressed in HEK293 cells assessed as induction of changes in intracellular Ca2+ level by FLIPR method. In kind it is functional, cell-based.
The test system of data set [13] is HEK293. As to the kind of experiment: Selectivity index, ratio of EC50 for agonist activity at mouse TRH-R1 expressed in HEK293 cells to EC50 for agonist activity at mouse TRH-R2 expressed in HEK293 cells. In kind it is cell-based.
For data set [14], the system named is Rattus norvegicus. As to the kind of experiment: Reduction in cognitive impairment in Sprague-Dawley rat assessed as reduction in latency to first entry to platform zone during retention trial at 10 umol/kg, iv measured on day 6 by Morris water maze test (reference value: 95.76 secs). In kind it is functional.
The test system of data set [15] is Rattus norvegicus. As to the kind of experiment: Effect on mean latency time during acquisition trial in Sprague-Dawley rat model of MCA occlusion-induced memory impairment at 10 umol/kg, iv by passive avoidance test. In kind it is ADME, organism-based. The conditions noted are these: in vivo.
Data set [16] has as its target T1, Thyrotropin-releasing hormone receptor 2. Nature of the data set: Agonist activity at mouse TRH-R2 expressed in HEK293 cells assessed as induction of changes in intracellular Ca2+ level by FLIPR method. In kind it is functional, cell-based.
In data set [17] the test system is Rattus norvegicus. As to the kind of experiment: Neuroprotective activity in Sprague-Dawley rat model of MCA occlusion-induced memory impairment assessed as maximum latency time during acquisition trial at 10 umol/kg, iv by passive avoidance test (reference value: 49 secs). In kind it is functional.

Turning to `NC(=O)[C@@H]1CCCN1C(=O)[C@H](Cc1nc(Br)[nH]c1Br)NC(=O)c1cnccn1`, the pIC50 in data set [1] and in data set [8] was below 4.30 in each case. For the same compound, the Stability result in [2] was “Stable”. For the same compound, the Activity in data set [3] is recorded as 196.08 mm3; in data set [10], 2.25; in data set [15], “Non-toxic”. The result in [4], in [5], in [7] and in data set [9] was Active. Moreover, the Time worked out at 96 s in data set [6], 36.31 s in data set [14] and 167 s in data set [17]. This compound also yielded an inhibition in vivo at 10 µmol/kg in data set [11] of 74.8%. For the same compound, the pEC50 is 5.60 in [12] and 7.30 in [16]. The Ratio EC50 in [13] was determined as 50.8.

A word on the pIC50: it is the negative decadic logarithm of the IC50, by convention in mol/L. Low values mean a high IC50, high ones a low IC50. Usually inhibition in vivo stands for the percentage by which the read-out fell short of the control. The term pEC50 denotes the EC50 on a negative log10 scale, so that one unit is a factor of ten.

(Values after ChEMBL document CHEMBL3600362, “Synthesis of CNS active thyrotropin-releasing hormone (TRH)-like peptides: Biological evaluation and effect on cognitive impairment induced by cerebral ischemia in mice” (Bioorg Med Chem, 2015).)
